# Key:
# [1] = clinical trials; twice-weekly regimen; cited from earlier work
# [2] = test system: DLD-1 cells (human colorectal cancer cells); details: constant ratio of IC50s, CI<1 synergism, CI=1 additivity, CI>1 antagonism
# Method: (§1) Human colon adenocarcinoma cell line, DLD-1, and human breast adenocarcinoma cell line, SKBr-3, were obtained from American Type Culture Collection (manassas, VA). DLD-1 cells were maintained in RPMI 1640 medium supplemented with 10% fetal bovine serum, and SKBr-3 cells were cultured in McCoy's 5a medium supplemented with 10% fetal bovine serum. 17-DMAG and 17-AAG were obtained using published procedures. Other cytotoxic agents were purchased commercially from suppliers such as Sigma Chemical Co. (St. Louis, Mo.) and Sequoia Research Products (Oxford, UK).
# (§2) Cells were seeded in duplicate in 96-well microtiter plates at a density of 5,000 cells per well and allowed to attach overnight. […] Cell viability was determined using the MTS assay (Promega). For the drug combination assay, cells were seeded in duplicate in 96-well plates (5,000 cells/well). […] Cell viability was determined by the MTS assay.
# (§3) Synergism, additivity or antagonism was determined by median effect analysis using the combination index (CI) calculated using Calcusyn (Biosoft, Cambridge, UK). […] The quantities [Dx]1 and [Dx]2 represent the concentrations of the first and second drug, respectively, that when used alone provide a response of x % in the assay. […] The “enhancing” effect of two drugs can also be determined.
# [3] = test system: SKBr cells (human breast cancer cells); assay: Cell viability (MTS) drug combination assay, combination index, SKBr-3 cells; assay type: cell-based; details: constant ratio of IC50s, CI<1 synergism
# Method: as §1, §2, §3
# [4] = 17-AAG 24 h before antibiotic, then 48 h
# [5] = antibiotic alone 24 h, then 17-AAG for 48 h
SMILES,MTD [1],"CI value, combination with 17-AAG, 17-AAG Pre-Administration [2, 4]","CI value, combination with 17-AAG, 17-AAG Post-Administration [2, 5]","CI value, combination with 17-AAG, 17-AAG Pre-Administration [3, 4]","CI value, combination with 17-AAG, 17-AAG Post-Administration [3, 5]"
"C=CCNC1=C2C[C@@H](C)C[C@H](OC)[C@H](O)[C@@H](C)/C=C(\C)[C@H](OC(N)=O)[C@@H](OC)/C=C\C=C(/C)C(=O)NC(=CC1=O)C2=O [17-AAG, 17-(allylamino)-17-desmethoxygeldanamycin]",about 220 mg/m2,–,–,–,–
"COc1cccc2c1C(=O)c1c(O)c3c(c(O)c1C2=O)C[C@@](O)(C(=O)CO)C[C@@H]3O[C@H]1C[C@H](N)[C@H](O)[C@H](C)O1 [Doxorubicin, doxorubicin]",–,0.58 ± 0.15,0.82 ± 0.09,0.81 ± 0.05,0.45 ± 0.12

# Reference: patent US20050054589A1, “Method for treating diseases using HSP90-inhibiting agents in combination with antibiotics” (Kosan Biosciences, Inc., priority 2003, published 2005)
